Structures are written as SMILES. Where “and” joins values, the source holds several entries; their conditions need not be identical. Equal values may be shown once.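 Each compound was tested at five concentrations against cells in 96-well plates for 48 hours. GI50: concentration for 50% inhibition of growth. TGI: concentration producing complete growth inhibition.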

Among the test systems are OVCAR-5 ovarian; MDA-MB-435; RXF 393 renal; SF-539 CNS; A549 NSCLC; HCT-15 colon; EKVX NSCLC; HOP-62 NSCLC; UO-31 renal; DU-145 prostate.
Holding throughout (test): inhibition of tumour cell growth, NCI panel, 48 h

`c1ccc(OCC[P+](c2ccccc2)(c2ccccc2)c2ccccc2)cc1`: the GI50 in the experiment with OVCAR-5 ovarian is 2.66 µM; with MDA-MB-435 it was 0.433 µM; in the experiment on RXF 393 renal, 4.19 µM; in the experiment on SF-539 CNS it was 1.89 µM; in the experiment on A549 NSCLC it was 2.96 µM; in the experiment on HCT-15 colon, 12 µM. Also, the GI50 in the experiment with EKVX NSCLC was 0.701 µM; in the experiment on HOP-62 NSCLC, 1.41 µM; in the experiment on UO-31 renal, 16.9 µM; in the experiment on DU-145 prostate, 2.11 µM. Further, the TGI in the experiment on OVCAR-5 ovarian was 20.6 µM; with MDA-MB-435, 4.31 µM; with RXF 393 renal, 16 µM; with SF-539 CNS, 13.1 µM; in the experiment on A549 NSCLC, 82.5 µM; in the experiment on HCT-15 colon it was greater than 100 µM. Also, the TGI in the experiment on EKVX NSCLC is greater than 40.1 µM; with HOP-62 NSCLC it was 11.1 µM; in the experiment with UO-31 renal it was greater than 79 µM; with DU-145 prostate it was 22.8 µM.
On to `C/C=C1/CN2CCC34c5ccccc5N5C(=O)C(C6CC78c9ccccc9N9C(=O)C=CC(C%10CC7N6C/C%10=C/C)C98)=CC(C1CC23)C54` (stereo not given), for which the GI50 is 19.3 µM in the experiment on OVCAR-5 ovarian; 7.47 µM with MDA-MB-435; 12 µM in the experiment on SF-539 CNS; 14.1 µM in the experiment with A549 NSCLC; 2.83 µM with HCT-15 colon; 12.5 µM in the experiment on EKVX NSCLC. In addition, in the experiment on UO-31 renal, the GI50 is 5.87 µM. Further, the TGI is 19.9 µM and 34.6 µM with OVCAR-5 ovarian; 21.4 µM and 21.7 µM with MDA-MB-435; 8.57 µM in the experiment with RXF 393 renal; 3.32 µM and 26.4 µM in the experiment with SF-539 CNS; 18.9 µM and 32.3 µM with A549 NSCLC; 14.6 µM and 10.3 µM in the experiment with HCT-15 colon. Moreover, the TGI in the experiment on EKVX NSCLC was 14.5 µM and 26.4 µM; in the experiment with HOP-62 NSCLC, 20.5 µM and 23.3 µM; in the experiment with UO-31 renal, 9.81 µM and 20.2 µM; with DU-145 prostate it was 23.4 µM.
For `COc1ccc(COc2ccc(Cc3cnc(N)nc3N)cc2OC)cc1`, the GI50 with OVCAR-5 ovarian was greater than 25 µM; with MDA-MB-435, greater than 25 µM; in the experiment on RXF 393 renal, 8.21 µM; in the experiment with SF-539 CNS, greater than 25 µM; in the experiment on A549 NSCLC, greater than 23.4 µM; with HCT-15 colon, greater than 23.7 µM. Besides, the GI50 in the experiment on EKVX NSCLC was greater than 16.2 µM; in the experiment with HOP-62 NSCLC, greater than 18.4 µM; in the experiment with UO-31 renal, 11.9 µM; with DU-145 prostate, greater than 25 µM. Besides, the TGI with OVCAR-5 ovarian, in the experiment on MDA-MB-435, in the experiment with RXF 393 renal, with SF-539 CNS, in the experiment on A549 NSCLC and in the experiment with HCT-15 colon was greater than 25 µM throughout. The TGI in the experiment on EKVX NSCLC, with HOP-62 NSCLC, in the experiment with UO-31 renal and in the experiment with DU-145 prostate was greater than 25 µM each time.
Take `CNC(=O)c1cc(Oc2ccc(NC(=O)Nc3ccc(Cl)c(C(F)(F)F)c3)cc2)ccn1`: the GI50 was 3.54 µM and 4.39 µM and 3.11 µM in the experiment on OVCAR-5 ovarian; 1.96 µM and 1.82 µM and 1.84 µM with MDA-MB-435; 3.58 µM and 2.88 µM and 3.41 µM with RXF 393 renal; 1.97 µM and 2.32 µM and 1.62 µM in the experiment on SF-539 CNS; 3.03 µM and 2.57 µM and 2.92 µM with A549 NSCLC; 2.76 µM and 3.18 µM and 2.65 µM with HCT-15 colon. Also, the GI50 with EKVX NSCLC was 3.24 µM and 2.51 µM and 2.67 µM; with HOP-62 NSCLC it was 2.78 µM and 2.59 µM and 2.01 µM; in the experiment with UO-31 renal, 3.08 µM and 3.03 µM and 2.57 µM; in the experiment with DU-145 prostate, 4.55 µM and 3.04 µM and 3.11 µM. Moreover, the TGI in the experiment with OVCAR-5 ovarian was > 10 µM and 19.9 µM and 15.7 µM; in the experiment with MDA-MB-435, 5.74 µM and 4.33 µM and 4.92 µM; with RXF 393 renal, > 10 µM and 9.26 µM and 9.86 µM; in the experiment on SF-539 CNS, > 10 µM and 9.07 µM and 4.82 µM; with A549 NSCLC, > 10 µM and 11.5 µM and 13.6 µM; with HCT-15 colon it was > 10 µM and 12.3 µM and 9.84 µM. Moreover, the TGI with EKVX NSCLC is > 10 µM and 7.86 µM and 13 µM; in the experiment with HOP-62 NSCLC, > 10 µM and 7.97 µM and 4.81 µM; with UO-31 renal it was > 10 µM and 8.18 µM and 6.2 µM; with DU-145 prostate, > 10 µM and 9.33 µM and 10.7 µM.
`Cc1cccc(Nc2ncc(-c3ccccc3)o2)c1`: the GI50 in the experiment on OVCAR-5 ovarian, in the experiment with MDA-MB-435, in the experiment with RXF 393 renal, in the experiment with SF-539 CNS, in the experiment on A549 NSCLC and in the experiment with HCT-15 colon was greater than 25 µM each time. Further, the GI50 in the experiment on EKVX NSCLC, with HOP-62 NSCLC, in the experiment on UO-31 renal and in the experiment on DU-145 prostate was greater than 25 µM in each case. Further, the TGI in the experiment on OVCAR-5 ovarian, in the experiment on MDA-MB-435, with RXF 393 renal, in the experiment with SF-539 CNS, with A549 NSCLC and in the experiment with HCT-15 colon was greater than 25 µM each time. Besides, the TGI in the experiment on EKVX NSCLC, with HOP-62 NSCLC, in the experiment on UO-31 renal and with DU-145 prostate was greater than 25 µM throughout.
For the molecule `CCN(Cc1c(F)cccc1C(F)(F)F)c1ccc(CO)c(Cl)c1`, the GI50 with OVCAR-5 ovarian is less than 0.0249 µM; in the experiment with MDA-MB-435 it was 14.2 µM; with RXF 393 renal, 12.6 µM; in the experiment on SF-539 CNS, 15.6 µM; in the experiment on A549 NSCLC, 5.56 µM; with HCT-15 colon, 12.8 µM. Further, the GI50 in the experiment with HOP-62 NSCLC is 13.7 µM; with UO-31 renal, 14.6 µM; in the experiment with DU-145 prostate, 15.9 µM. Further, the TGI in the experiment on OVCAR-5 ovarian came out at 0.205 µM; in the experiment on MDA-MB-435 it was 28.3 µM; with RXF 393 renal, 28.5 µM; in the experiment on SF-539 CNS, 29.4 µM; with A549 NSCLC it was 23.1 µM; in the experiment on HCT-15 colon, 27.1 µM. For the same molecule, the TGI came out at 26.6 µM with HOP-62 NSCLC, 28.3 µM in the experiment with UO-31 renal and 29.8 µM with DU-145 prostate.
`c1ccc2c(c1)CCCc1nnc3nc4ccccc4n3c1-2`: the GI50 is 9.28 µM in the experiment on OVCAR-5 ovarian; 7.32 µM with MDA-MB-435; 3.08 µM in the experiment with RXF 393 renal; 3.57 µM with SF-539 CNS; 3.66 µM in the experiment on A549 NSCLC; 3.27 µM in the experiment on HCT-15 colon. In addition, the GI50 in the experiment with EKVX NSCLC is 4.02 µM; with HOP-62 NSCLC, 4.73 µM; with UO-31 renal, 3.08 µM; with DU-145 prostate, 4.91 µM. The TGI in the experiment with OVCAR-5 ovarian was greater than 100 µM; in the experiment on MDA-MB-435, greater than 100 µM; in the experiment on RXF 393 renal, 32.7 µM; in the experiment on SF-539 CNS, 18.4 µM; in the experiment on A549 NSCLC it was greater than 100 µM; in the experiment with HCT-15 colon, greater than 100 µM. Moreover, the TGI with EKVX NSCLC is greater than 100 µM; in the experiment with HOP-62 NSCLC, greater than 100 µM; with UO-31 renal, 30.5 µM; in the experiment on DU-145 prostate it was greater than 100 µM.
For `S=C1NC(c2ccccc2)NC(c2ccccc2)S1` (stereo not given), the TGI in the experiment with OVCAR-5 ovarian, with MDA-MB-435, with RXF 393 renal, in the experiment on SF-539 CNS, in the experiment on A549 NSCLC and with HCT-15 colon was greater than 100 µM each time. Also, the TGI in the experiment on EKVX NSCLC, in the experiment with HOP-62 NSCLC, in the experiment with UO-31 renal and in the experiment on DU-145 prostate was greater than 100 µM in each case.

For the origin of these results see PubChem BioAssay (NCI).
